According to ChEMBL document CHEMBL1141827, “A glycosyl analogue of diacylglycerol and other antiinflammatory constituents from Inula viscosa” (1999):

Key:
Type in all cases: functional
[1] = tested on: Mus musculus; assay: Antiinflammatory activity against Swiss mouse assessed as inhibition of carrageenan-induced paw volume at 100 mg/kg, po administered 1 hr prior to carrageenan challenge measured after 1 hr
[2] = tested on: Mus musculus; assay: Antiinflammatory activity against Swiss mouse assessed as inhibition of carrageenan-induced paw volume at 100 mg/kg, po administered 1 hr prior to carrageenan challenge measured after 5 hrs
[3] = tested on: Mus musculus; assay: Antiinflammatory activity against Swiss mouse assessed as inhibition of carrageenan-induced paw volume at 100 mg/kg, po administered 1 hr prior to carrageenan challenge measured after 3 hrs
[4] = tested on: Mus musculus; assay: Antiinflammatory activity against Swiss mouse assessed as inhibition of arachidonic acid-induced edema at 0.5 mg/ear applied 30 mins before arachidonic acid challenge measured after 1 hr
[5] = tested on: Mus musculus; assay: Antiinflammatory activity against Swiss mouse assessed as inhibition of TPA-induced edema at 0.5 mg/ear applied simultaneously with TPA measured after 4 hrs
[6] = tested on: Mus musculus; assay: Antiinflammatory activity against Swiss mouse chronic dermatitis model assessed as inhibition of TPA-induced edema at 0.5 mg/ear applied twice daily for 4 days measured after 6 hrs
[7] = species on record: Mus musculus; assay: Antiinflammatory activity against Swiss mouse chronic dermatitis model assessed as inhibition of TPA-induced tissue myeloperoxidase activity at 0.5 mg/ear applied twice daily for 4 days measured after 6 hrs

Molecule CCCCC1C(=O)N(c2ccccc2)N(c2ccccc2)C1=O [PHENYLBUTAZONE] has an inhibition in vivo at 100 mg/kg [1] of 54%, an inhibition in vivo at 100 mg/kg [2] of 43% and an inhibition in vivo at 100 mg/kg [3] of 58%.

For COc1cc(O)c2c(c1)O[C@H](c1ccc(O)c(O)c1)[C@@H](OC(C)=O)C2=O, the “inhibition (INH)” value [4] was -1% and the “inhibition (INH)” value [5] was 83%.

COc1cc(O)c2c(c1)O[C@H](c1ccc(O)cc1)[C@@H](O)C2=O was tested, and the “inhibition (INH)” value [4] was 3% and the “inhibition (INH)” value [5] was 78%.

C=C1C(=O)O[C@H]2CC(=C)[C@H]3CC[C@@](C)(O)[C@@H]3C[C@H]12 [INUVISCOLIDE] was tested, and the “inhibition (INH)” value [4] was -16% and the “inhibition (INH)” value [5] was 90%.

In the case of COc1cc(O)c2c(=O)c(O)c(-c3ccc(O)cc3)oc2c1 [RHAMNOCITRIN], the “inhibition (INH)” value [4] is reported as 6% and the “inhibition (INH)” value [5] is reported as 78%.

O=C1CCN(c2ccccc2)N1 [PHENIDONE] was tested, and the “inhibition (INH)” value [4] was 51%.

C[C@@H]1C[C@H]2[C@@H]3CCC4=CC(=O)C=C[C@]4(C)[C@@]3(F)[C@@H](O)C[C@]2(C)[C@@]1(O)C(=O)CO [DEXAMETHASONE] was tested, and the “inhibition (INH)” value [6] was 92% and the “inhibition (INH)” value [7] was 92%.

CC/C=C\C/C=C\C/C=C\CCCCCCCC(=O)OC(COC(=O)CCCCCCCCCCCCCCC)CO[C@H]1O[C@@H](CO[C@H]2O[C@H](CO)[C@H](O)[C@H](O)[C@H]2O)[C@@H](O)[C@@H](O)[C@@H]1O (some centres undefined) [INUGALACTOLIPID A] was tested, and the inhibition in vivo at 100 mg/kg [1] was -16%, the “inhibition (INH)” value [6] was 97% and the “inhibition (INH)” value [4] was 5%. The inhibition in vivo at 100 mg/kg [2] was 5%, the inhibition in vivo at 100 mg/kg [3] was 10% and the “inhibition (INH)” value [7] was 84%. The “inhibition (INH)” value [5] was 48%.

For C=C(C(=O)O)[C@@H]1CC[C@@]2(C)CCC[C@@](C)(O)[C@@H]2C1 [ILICIC ACID], the inhibition in vivo at 100 mg/kg [1] was 5%, the “inhibition (INH)” value [6] was 78% and the “inhibition (INH)” value [4] was 18%. For the same molecule, the inhibition in vivo at 100 mg/kg [2] was 30%, the inhibition in vivo at 100 mg/kg [3] was 32% and the “inhibition (INH)” value [7] was 82%. The “inhibition (INH)” value [5] was 72%.

With COc1ccc2c(c1)c(CC(=O)O)c(C)n2C(=O)c1ccc(Cl)cc1 [INDOMETHACIN] the “inhibition (INH)” value [5] was 91%.
